Where a name gives a salt, the structure may show the parent alone. Read-outs that look alike come from different tables or passages of the source.
Key:
human IBAT = biological target: T1, human IBAT (Homo sapiens, UniProt Q12908); experiment: In vitro assay of IBAT-mediated uptake of [14C]-taurocholate (TC) in H14 cells; format: cell-based; details: for IC50: read-out: Human TC IC50; for In vitro % Inhibition of TC Uptake: 50 μM
T1 construct: expressed in transfected cells; host or cells: Baby hamster kidney (BHK) cells, clone H14
T1 sequence (Q12908 1-348): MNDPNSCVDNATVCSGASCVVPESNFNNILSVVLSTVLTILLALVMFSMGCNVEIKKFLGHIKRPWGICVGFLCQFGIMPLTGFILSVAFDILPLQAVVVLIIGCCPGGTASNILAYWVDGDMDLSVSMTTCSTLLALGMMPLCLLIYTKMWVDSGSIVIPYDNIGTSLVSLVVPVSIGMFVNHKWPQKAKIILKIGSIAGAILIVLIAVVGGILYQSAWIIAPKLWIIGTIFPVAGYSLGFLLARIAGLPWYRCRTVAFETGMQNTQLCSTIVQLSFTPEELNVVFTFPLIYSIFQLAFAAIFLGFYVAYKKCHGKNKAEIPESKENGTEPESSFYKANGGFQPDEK
Procedure, shortened: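 BHK cells stably expressing human IBAT (H14) were incubated 2 h at 37° C with compound and 3 μM final [14C]-taurocholate in DMEM (4.5 g/L glucose) plus 0.2% fatty acid-free BSA. After cold PBS washes, cell-associated radioactivity was measured by scintillation counting.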

fecal bile acid (FBA) = experiment: Rat gavage assay (fecal bile acid increase); format: in vivo
Procedure: Male Wister rats (275-300 g) are administered IBAT inhibitors using an oral gavage procedure. Drug or vehicle (0.2% Tween 80 in water) is administered once a day (9:00-10:0 a.m.) for 4 days at varying dosages in a final volume of 2 mL per kilogram of body weight. Total fecal samples are collected during the final 48 hours of the treatment period and analyzed for bile acid content using an enzymatic assay as described below. Compound efficacy is determined by comparison of the increase in fecal bile acid (FBA) concentration in treated rats to the mean FBA concentration of rats in the vehicle group.
Measurement of Fecal Bile Acid Concentration (FBA)
Total fecal output from individually housed hamsters was collected for 24 or 48 hours, dried under a stream of nitrogen, pulverized and weighed. Approximately 0.1 gram was weighed out and extracted into an organic solvent (butanol/water). Following separation and drying, the residue was dissolved in methanol and the amount of bile acid present was measured enzymatically using the 3α-hydroxysteroid steroid dehydrogenase reaction with bile acids to reduce NAD. (Reference: Mashige, F., et al. (1981) Clin. Chem. 27, 1352).

[1] = In Vitro Taurocholate Uptake, Table 10

IC50 (human IBAT)	Compound	other results
–	CCCCC1(CCCC)CS(=O)(=O)c2ccc(N(C)C)cc2[C@@H](c2ccc(OCc3ccc(CN(CC(=O)O)CC(=O)O)cc3)cc2)[C@H]1O (relative stereo) [Example 1427]	IC50 (human IBAT; [1]): 2 nM; Delta (micromoles fecal bile acid per day) (fecal bile acid (FBA); dose 2 mg/kg/day): 36.7 micromoles fecal bile acid per day; Delta (micromoles fecal bile acid per day) (fecal bile acid (FBA); dose .016 mg/kg/day): 13.8 micromoles fecal bile acid per day; Delta (micromoles fecal bile acid per day) (fecal bile acid (FBA); dose .08 mg/kg/day): 27.3 micromoles fecal bile acid per day; Delta (micromoles fecal bile acid per day) (fecal bile acid (FBA); dose .4 mg/kg/day): 35.8 micromoles fecal bile acid per day
1200 nM	CCCCC1(CCCC)CS(=O)(=O)c2ccc(N(C)C)cc2C(c2ccc(OC(=O)C(OC)(c3ccccc3)C(F)(F)F)cc2)C1O (centres unmarked) [Example 1306]	–
40 nM	CCCCC1(CC)CS(=O)(=O)c2ccc(N(C)C)cc2C(c2ccc(OS(=O)(=O)CC34CCC(CC3=O)C4(C)C)c(F)c2)C1O (centres unmarked) [Example 1308]	–
240 nM	CCCCC1(CCCC)CS(=O)(=O)c2c(F)cccc2C(c2ccc(OC)cc2)C1O (centres unmarked) [Example 1309]	–
1160 nM	CCCCC1(CC)CS(=O)(=O)c2ccc(N)cc2C(c2ccccc2)C1O (centres unmarked) [Example 1310]	–
5000 nM	CCCCCCOc1ccc2c(c1)S(=O)(=O)CC(CC)(CCCC)C(O)C2c1ccccc1 (centres unmarked) [Example 1312]	–
6100 nM	CCCCC1(CC)CS(=O)(=O)c2cc(OCC)ccc2C(c2ccccc2)C1O (centres unmarked) [Example 1313]	–
1670 nM	CCCCCCOc1ccc2c(c1)C(c1ccccc1)C(O)C(CC)(CCCC)CS2(=O)=O (centres unmarked) [Example 1315]	–
3900 nM	CCCCC1(CC)CS(=O)(=O)c2cc(O)ccc2C(c2ccccc2)C1O (centres unmarked) [Example 1316]	–
3.6 nM	CCCCC1(CCCC)CS(=O)(=O)c2ccc(N(C)C)cc2C(c2ccc(OC)c(F)c2)C1O (centres unmarked) [Example 1347]	–
100 nM	CCCCC1(CCCC)CS(=O)(=O)c2ccc(N(C)C)cc2C(c2ccc(OCCC[N+](CCCC)(CCCC)CCCC)cc2)C1O (centres unmarked) [Example 1352]	–
6 nM	CCCCC1(CCCC)CS(=O)(=O)c2ccc(N(C)C)cc2C(c2ccc(OCCOCCOCC[N+]3(C)CC[N+](C)(C)CC3)c(F)c2)C1O (centres unmarked) [Example 1354]	–
1.5 nM	CCCCC1(CCCC)CS(=O)(=O)c2ccc(N(C)C)cc2C(c2cccc(OCCOCCOCC[n+]3ccccc3)c2)C1O (centres unmarked) [Example 1355]	–
220 nM	CCCCC1(CCCC)CS(=O)(=O)c2ccc(N(C)C)cc2C(c2ccc[n+](C)c2)C1O (centres unmarked) [Example 1356]	–
8 nM	CCCCC1(CCCC)CS(=O)(=O)c2ccc(N(C)C)cc2C(c2cccc(OCCOCCOCC[P+](CC)(CC)CC)c2)C1O (centres unmarked) [Example 1358]	–
14 nM	CCCCC1(CCCC)CS(=O)(=O)c2ccc(N(C)C)cc2C(c2cccc(OCCOCCOCC[n+]3ccn(Cc4ccccc4)c3)c2)C1O (centres unmarked) [Example 1359]	–
3 nM	CCCCC1(CCCC)CS(=O)(=O)c2ccc(N(C)C)cc2C(c2cccc(OCCOCCOCC[n+]3nnn4c3CCCCC4)c2)C1O (centres unmarked) [Example 1360]	–
4 nM	CCCCC1(CCCC)CS(=O)(=O)c2ccc(N(C)C)cc2C(c2cccc(OCCOCCOCC[n+]3cccn3-c3ccccc3)c2)C1O (centres unmarked) [Example 1361]	–
19 nM	CCCCC1(CCCC)CS(=O)(=O)c2ccc(N(C)C)cc2C(c2cccc(OCCOCCOCC[N+](CC)(CC)CCC(=O)O)c2)C1O (centres unmarked) [Example 1362]	–
8 nM	CCCCC1(CCCC)CS(=O)(=O)c2ccc(N(C)C)cc2C(c2cccc(OCCOCCOCC[N+](CC)(CC)CCNS(=O)(=O)N(C)C)c2)C1O (centres unmarked) [Example 1363]	–

IC50 (human IBAT)	Compound	other results
6 nM	CCCCC1(CCCC)CS(=O)(=O)c2ccc(N(C)C)cc2C(c2cccc(OCCOCCOCC[N+](CC)(CC)CCNC(N)=O)c2)C1O (centres unmarked) [Example 1364]	–
8 nM	CCCCC1(CCCC)CS(=O)(=O)c2ccc(N(C)C)cc2C(c2cccc(OCCOCCOCC[N+](CC)(CC)CCNS(=O)(=O)c3ccccc3)c2)C1O (centres unmarked) [Example 1365]	–
15 nM	CCCCC1(CCCC)CS(=O)(=O)c2ccc(N(C)C)cc2C(c2ccc(OCCCC[n+]3ccc(C(=O)OC)cc3)c(F)c2)C1O (centres unmarked) [Example 1366]	–
2 nM	CCCCC1(CCCC)CS(=O)(=O)c2ccc(N(C)C)cc2C(c2cccc(OCCOCCOCC[n+]3ccn(CC)c3)c2)C1O (centres unmarked) [Example 1367]	–
5 nM	CCCCC1(CCCC)CS(=O)(=O)c2ccc(N(C)C)cc2C(c2cccc(OCCOCCOCC[n+]3c(C)cc(C)cc3C)c2)C1O (centres unmarked) [Example 1368]	–
5 nM	CCCCC1(CCCC)CS(=O)(=O)c2ccc(N(C)C)cc2C(c2cccc(OCCOCCOCC[n+]3ccccc3-c3ccccc3)c2)C1O (centres unmarked) [Example 1369]	–
2 nM	CCCCC1(CCCC)CS(=O)(=O)c2ccc(N(C)C)cc2C(c2cccc(OCCOCCOCC[N+](C)(C)C3CC(C)(C)N(C)C(C)(C)C3)c2)C1O (centres unmarked) [Example 1370]	–
4 nM	CCCCC1(CCCC)CS(=O)(=O)c2ccc(N(C)C)cc2C(c2cccc(OCCOCCOCC[N+](CC)(CC)CC#N)c2)C1O (centres unmarked) [Example 1371]	–
4 nM	CCCCC1(CCCC)CS(=O)(=O)c2ccc(N(C)C)cc2C(c2cccc(OCCOCCOCC[N+](CC)(CC)CCNC(=O)N(C)C)c2)C1O (centres unmarked) [Example 1372]	–
8 nM	CCCCC1(CCCC)CS(=O)(=O)c2ccc(N(C)C)cc2C(c2cccc(OCCOCCOCC[N+](CC)(CC)CCNP(C)(=O)c3ccccc3)c2)C1O (centres unmarked) [Example 1373]	–
7 nM	CCCCC1(CCCC)CS(=O)(=O)c2ccc(N(C)C)cc2C(c2cccc(OCCOCCOCC[N+](CC)(CC)CCNC(=O)c3ccccc3)c2)C1O (centres unmarked) [Example 1374]	–
2 nM	C=C(C)C(=O)OCC[N+](CC)(CC)CCOCCOCCOc1cccc(C2c3cc(N(C)C)ccc3S(=O)(=O)CC(CCCC)(CCCC)C2O)c1 (centres unmarked) [Example 1375]	–
–	CCCCC1(CCCC)CS(=O)(=O)c2ccc(N(C)C)cc2[C@@H](c2ccc(OCCC[N+]34CCN(CC3)CC4)cc2)[C@H]1O [Example 1407, (4R-cis)-1-[3-[4-[3,3-Dibutyl-7-(dimethylamino)-2,3,4,5-tetrahydro-4-hydroxy-1,1-dioxido-1-benzothiepin-5-yl]phenoxy]propyl]-4-aza-1-azoniabicyclo[2.2.2]octane, 4-methylbenzenesulfonate (Salt)]	IC50 (human IBAT; [1]): 3 nM
–	CCCCC1(CCCC)CS(=O)(=O)c2ccc(N(C)C)cc2[C@@H](c2ccc(OCCCC[N+]34CCN(CC3)CC4)cc2)[C@H]1O [Example 1408, (4R-cis)-1-[4-[4-[3,3-Dibutyl-7-(dimethylamino)-2,3,4,5-tetrahydro-4-hydroxy-1,1-dioxido-1-benzothiepin-5-yl]phenoxy]butyl]-4-aza-1-azoniabicyclo [2.2.2]octanemethanesulfonate (Salt)]	IC50 (human IBAT; [1]): 1 nM
–	CCCCC1(CCCC)CS(=O)(=O)c2ccc(N(C)C)cc2[C@@H](c2ccc(OCCCC[N+]34CCN(CC3)CC4)cc2)[C@H]1O [Example 1409, (4R-cis)-1-[4-[4-[3,3-Dibutyl-7-(dimethylamino)-2,3,4,5-tetrahydro-4-hydroxy-1,1-dioxido-1-benzothiepin-5-yl]phenoxy]butyl]-4-aza-1-azoniabicyclo[2.2.2]octane-4-methylbenzenesulfonate (Salt)]	IC50 (human IBAT; [1]): 0.9 nM
–	CCCCC1(CCCC)CS(=O)(=O)c2ccc(N(C)C)cc2[C@@H](c2ccc(OCCCCC[n+]3cccc4ccccc43)cc2)[C@H]1O [Example 1412, (4R-cis)-1-[5-[4-[3,3-Dibutyl-7-(dimethylamino)-2,3,4,5-tetrahydro-4-hydroxy-1,1-dioxido-1-benzothiepin-5-yl]phenoxy]pentyl]quinolinium, methanesulfonate (Salt)]	IC50 (human IBAT; [1]): 3 nM
–	CCCCC1(CCCC)CS(=O)(=O)c2ccc(N(C)C)cc2[C@@H](c2ccc(OCc3cc[n+](C)cc3)cc2)[C@H]1O [Example 1428, (4R-cis)-4-[[4-[3,3-Dibutyl-7-(dimethylamino)-2,3,4,5-tetrahydro-4-hydroxy-1,1-dioxido-1,1-dioxido-1-benzothiepin-5-yl]phenoxy]methyl]-1-methylpyridinium salt with trifluoroacetic acid (1:1)]	IC50 (human IBAT; [1]): 0.7 nM
–	CCCCC1(CCCC)CS(=O)(=O)c2ccc(N(C)C)cc2[C@@H](c2ccc(OCc3cccc(CN(CC(=O)O)CC(=O)O)n3)cc2)[C@H]1O [Example 1431, (4R-cis)-N-(Carboxymethyl)-N-[[6-[[4-[3,3-dibutyl-7-(dimethylamino)-2,3,4,5-tetrahydro-4-hydroxy-1,1-dioxido-1-benzothiepin-5-yl]phenoxy]methyl]-2-pyridinyl]methyl]glycine]	IC50 (human IBAT; [1]): 5 nM
–	cis-4-Hydroxy-5-phenyl-2,3,4,5-tetrahydro spiro(benzothiepine-3,1′-cyclohexane)-1,1-dioxide [Example 60]	In vitro % Inhibition of TC Uptake (human IBAT): 41%
–	trans-4-Hydroxy-5-phenyl-2,3,4,5-tetrahydro spiro(benzothiepine-3,1′-cyclohexane)-1,1-dioxide [Example 59]	In vitro % Inhibition of TC Uptake (human IBAT): 96%
